Results published in patent US11814376B2, “Hepatitis b core protein modulators” (Assembly Biosciences, Inc., priority 2015, dated 2023).
Counter-ions that a name gives are not always drawn.

What was measured:
[1] = system: HBV viral load in AD38 cells; assay: Viral load production in AD38 cells, quantitative PCR of the core sequence in supernatant; type: cell-based; details: 10 μM compound, 6 days at 37° C., supernatant qPCR, relative to DMSO control; for activity at 10 µM: Hepatitis B virus, 144 h, read-out: AD38 Viral Load (%) (VL with cmpd/VL in DMSO control) at 10 μM
Method: (§1) Example 2: Assay Measuring Activity of Compounds on Viral Production in and on Viability of AD38 Cells
(§2) AD38 cells were then re-suspended with 10 mL of Treatment Medium and counted. Wells of a collagen coated 96-well NUNC microtiter plate were seeded at 50,000/well in 180 μL of Treatment Medium, and 20 μL of in treatment media with either 10% DMSO (Control) or a 10× solution of compound in 10% DMSO was added. Plates were incubated for 6 days at 37° C.
Viral load production was assayed by quantitative PCR of the core sequence. […] The PCR mixture was incubated at 45° C. for 5 minutes, then 95° C. for 10 min, followed by 40 cycles of 10 seconds at 95° C. and 20 seconds at 60° C. Viral load was quantitated against known standards by using ViiA™ 7 Software. Viral load in the supernatant from wells with treated cells were compared against viral load in supernatant from DMSO control wells (>3 per plate).

AD38 cells = assay: Viability of AD38 cells (Promega CellTiter-Glo); type: cell-based; details: 10 μM compound, 6 days, CellTiter-Glo luminescence normalized to DMSO control (100%)
Method: as §1, §2
At the end of compound treatment period cell viability was assessed using a Promega CellTiter-Glo protocol. All supernatant was removed the previously treated 96-well microtiter plate, and 50 μL Tetracycline-free treatment medium (DMEM/F12 (1:1), 1× Pen/step (cat #: 30-002-CL, Mediatech, Inc), with 2% FBS, Tet-system approved (cat #: 631106, Clontech), and 1% DMSO was added back to each well. Another 50 μL of CellTiter-Glo reagent solution (Promega, G7573) was then added at room temperature and the contents mixed for 2 minutes on an orbital shaker to induce cell lysis. This was followed by incubation at room temperature for 10 minutes to stabilize the luminescent signal. The luminescence was recorded for 0.2 seconds per well on a Tecan multimode plate reader (Infinite M1000 pro). The luminescent signal from each well was normalized against that of untreated (DMSO) control wells. All results were reported percent viability (with controls being 100%).

| SMILES | activity at 10 µM [1] [%] | AD38 Viability Normalized Result (cmpd/DMSO %) at 10 μM (AD38 cells) [%] | AD38 Viral Load (%) (VL with cmpd/VL in DMSO control) at 10 μM [1] |
| --- | --- | --- | --- |
| O=C(O)c1ccc(-c2ncc(CNC(=O)c3ccc4c(c3)NC(=O)c3ccccc3S4(=O)=O)s2)cc1 [compound 1585, 4-(5-((5,5-dioxido-11-oxo-10, 11-dihydrodibenzo [b, f] [1, 4]thiazepine-8-carboxamido)methyl)thiazol-2-yl) benzoic acid] | 64.1 | 96 | – |
| Nc1ccnc(-c2ncc(CNC(=O)c3ccc4c(c3)NC(=O)c3ccccc3S4(=O)=O)s2)c1 [compound 1888, N-((2-(4-aminopyridin-2-yl)thiazol-5-yl)methyl)-11-oxo-10,11-dihydrodibenzo [b, f] [1, 4] thiazepine-8-carboxamide 5,5-dioxide, TFA salt] | 1.2 | 100 | – |
| O=C(NCc1cnc(-c2ccccc2CCO)s1)c1ccc2c(c1)NC(=O)c1ccccc1S2(=O)=O [compound 1839, N-((2-(2-(2-hydroxyethyl)phenyl)thiazol-5-yl)methyl)-11-oxo-10, 11-dihydrodibenzo [b, f] [1, 4] thiazepine-8-carboxamide 5,5-dioxide] | 6.6 | 96 | – |
| Cl.O=C(NCc1cnc(-c2ccc(N3CCNCC3)cc2)s1)c1ccc2c(c1)NC(=O)c1ccccc1S2(=O)=O [compound 11018, 11-oxo-N-((2-(4-(piperazin-1-yl)phenyl)thiazol-5-yl)methyl)-10, 11-dihydrodibenzo [b, f] [1, 4] thiazepine-8-carboxamide 5,5-dioxide hydrochloride] | 3.9 | 98 | – |
| Cc1cc(-c2ncc(CNC(=O)c3ccc4c(c3)NC(=O)c3ccccc3O4)s2)cc(C)c1O [compound 1738, N-((2-(4-hydroxy-3,5-dimethylphenyl)thiazol-5-yl)methyl)-11-oxo-10, 11-dihydrodibenzo [b, f] [1, 4] oxazepine-8-carboxamide] | 2.9 | 93 | – |
| O=C(NCc1cnc(-n2cc(C(F)(F)F)cn2)s1)c1ccc2c(c1)NC(=O)c1ccccc1S2(=O)=O [compound 11039] | 1.9 | 92 | – |
| O=C(NCc1cnc(-c2ccc(O)cc2)s1)c1ccc2c(c1)NC(=O)c1ccccc1C2 [compound 1734] | 10.6 | 96 | – |
| O=C1Nc2c(cc(F)c(C(=O)NCc3cnc(-c4ccc(O)cc4)s3)c2F)Sc2ccccc21 [compound 1750] | 1.1 | 107 | – |
| O=C1CCN(c2ncc(CNC(=O)c3ccc4c(c3)NC(=O)c3ccccc3S4(=O)=O)s2)CC1 [compound 1906] | 7.8 | 89 | – |
| O=C1Cc2cccc(-c3ncc(CNC(=O)c4ccc5c(c4)NC(=O)c4ccccc4S5(=O)=O)s3)c2N1 [compound 1930] | 23.8 | 91 | – |
| O=C(NCc1cnc(CN2CCOCC2)s1)c1ccc2c(c1)NC(=O)c1ccccc1S2(=O)=O [compound 1927] | 4.7 | 92 | – |
| COc1ccc(Cc2ncc(CNC(=O)c3ccc4c(c3)NC(=O)c3ccccc3O4)s2)cc1 [1835-A, N-((2-(4-methoxybenzyl)thiazol-5-yl)methyl)-11-oxo-10, 11-dihydrodibenzo [b, f] [1, 4] oxazepine-8-carboxamide] | 0.3 | 89 | – |
| Cc1c(C(=O)NCc2cnc(C(F)(F)F)s2)ccc2c1NC(=O)c1ccccc1S2(=O)=O [compound 1767] | 0.5 | 94 | – |
| O=C(NCc1cnc(-c2ccc(C#CCCO)cc2)s1)c1ccc2c(c1)NC(=O)c1ccccc1S2(=O)=O [11002-A, N-((2-(4-(4-hydroxybut-1-yn-1-yl)phenyl)thiazol-5-yl)methyl)-11-oxo-10, 11-dihydrodibenzo [b, f] [1, 4] thiazepine-8-carboxamide 5,5-dioxide] | 1 | 106 | – |
| CN(C)c1ncc(CNC(=O)c2ccc3c(c2)NC(=O)c2ccccc2S3)s1 [compound 1425] | 0.6 | 100 | – |
| COC(=O)C1CCN(CCCOc2ccc(-c3ncc(CNC(=O)c4ccc5c(c4)NC(=O)c4ccccc4S5(=O)=O)s3)cc2)C1 (centres unmarked) [11107-A, methyl 1-(3-(4-(5-((5,5-dioxido-11-oxo-10, 11-dihydrodibenzo [b, f] [1, 4]thiazepine-8-carboxamido)methyl)thiazol-2-yl)phenoxy)propyl) pyrrolidine-3-carboxylate] | – | 100 | 7.7 |
| Cc1c(C(=O)NCc2cnc(-c3ccc(O)cc3)s2)ccc2c1NC(=O)c1ccccc1S2 [compound 1755] | 0.4 | 93 | – |
| O=C(NCc1cnc(C(F)(F)F)s1)c1ccc2c(c1)NC(=O)c1ccccc1S2(=O)=O [compound 1553] | 0.5 | 107 | – |
| CCCCN1c2ccc(C(=O)NCc3cnc(C(F)(F)F)s3)cc2NC(=O)c2ccccc21 [compound 1922] | 60.3 | 39 | – |
| CN(C)CC(O)COc1ccc(-c2ncc(CNC(=O)c3ccc4c(c3)NC(=O)c3ccccc3S4(=O)=O)s2)cc1 (centres unmarked) [compound 11085] | 3.4 | 88 | – |
| O=C(NCc1cnc(-c2ccc(OC3CCNCC3)cc2)s1)c1ccc2c(c1)NC(=O)c1ccccc1S2(=O)=O [compound 11026, 11-oxo-N-((2-(4-(piperidin-4-yloxy)phenyl)thiazol-5-yl)methyl)-10, 11-dihydrodibenzo [b, f] [1, 4] thiazepine-8-carboxamide 5,5-dioxide] | 5.5 | 100 | – |
| O=C1CCCCN(c2ncc(CNC(=O)c3ccc4c(c3)NC(=O)c3ccccc3S4(=O)=O)s2)C1 [compound 1909, 11-oxo-N-((2-(3-oxoazepan-1-yl)thiazol-5-yl)methyl)-10, 11-dihydrodibenzo [b, f] [1, 4] thiazepine-8-carboxamide 5,5-dioxide] | 1.3 | 95 | – |
| NCCCS(=O)(=O)c1ccc(-c2ncc(CNC(=O)c3ccc4c(c3)NC(=O)c3ccccc3S4(=O)=O)s2)cc1.O=C(O)C(F)(F)F [compound 11032, N-((2-(4-((3-aminopropyl)sulfonyl)phenyl)thiazol-5-yl)methyl)-11-oxo-10, 11-dihydrodibenzo [b, f] [1, 4] thiazepine-8-carboxamide 5,5-dioxide TFA salt] | 51.7 | 103 | – |
| Cl.O=C(NCc1cnc(-c2ccc(OC[C@H]3CCNC3)cc2)s1)c1ccc2c(c1)NC(=O)c1ccccc1S2(=O)=O [compound 11139, (S)-11-oxo-N-((2-(4-(pyrrolidin-3-ylmethoxy)phenyl)thiazol-5-yl)methyl)-10, 11-dihydrodibenzo [b, f] [1, 4] thiazepine-8-carboxamide 5,5-dioxide hydrochloride] | 5.5 | 104 | – |
| CC(C)(C)OC(=O)NCCCSc1ccc(-c2ncc(CNC(=O)c3ccc4c(c3)NC(=O)c3ccccc3S4(=O)=O)s2)cc1 [11007-A, tert-butyl (3-((4-(5-((5,5-dioxido-11-oxo-10, 11-dihydrodibenzo [b, f] [1, 4]thiazepine-8-carboxamido)methyl)thiazol-2-yl)phenyl)thio)propyl) carbamate] | – | 75 | 0.9 |
| O=C(NCc1cnc(-c2ccc(OCCN3CCOCC3)cc2)s1)c1ccc2c(c1)NC(=O)c1ccccc1S2(=O)=O [compound 1587] | 2.8 | 99 | – |
| CCN(CC)CCCOc1ccc(-c2ncc(CNC(=O)c3ccc4c(c3)NC(=O)c3ccccc3S4(=O)=O)s2)cc1 [compound 11073] | 2.2 | 94 | – |
| N#Cc1ccc(-c2ncc(CNC(=O)c3ccc4c(c3)NC(=O)c3ccccc3S4(=O)=O)s2)c(F)c1 [compound 1814] | 0.9 | 92 | – |
